PubChem BioAssay (NCI)
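48-hour exposure; five concentrations; linearly interpolated endpoints. Here, GI50 denotes the concentration required for 50% inhibition of growth. TGI is the concentration that stops growth completely.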 *1 amine or outer side, *2 acyl side, *3 side chain or, on linkers, in order; H or OH if unused. Where a SMILES comes first, the peptide text is derived from it. [ ]: non-standard residue; d: D form. X38 = CSCCCC(N[*:1])C(=O)[*:2]

Assays:
Test in all cases: inhibition of tumour cell growth, NCI panel, 48 h
NCI-H23 lung = system: NCI-H23 lung
HOP-92 NSCLC = system: HOP-92 NSCLC
NCI-H226 lung = system: NCI-H226 lung
UACC-257 melanoma = system: UACC-257 melanoma
BT-549 breast = system: BT-549 breast
A549 NSCLC = system: A549 NSCLC
A498 renal = system: A498 renal
K-562 leukemia = system: K-562 leukemia
OVCAR-3 ovarian = system: OVCAR-3 ovarian
MDA-MB-435 = system: MDA-MB-435
TK-10 renal = system: TK-10 renal
SF-295 CNS = system: SF-295 CNS
MCF7 breast = system: MCF7 breast
KM12 colon = system: KM12 colon
COLO 205 colon = system: COLO 205 colon
SNB-75 CNS = system: SNB-75 CNS
MALME-3M melanoma = system: MALME-3M melanoma
CAKI-1 renal = system: CAKI-1 renal
HCT-15 colon = system: HCT-15 colon
RPMI-8226 leukemia = system: RPMI-8226 leukemia
UO-31 renal = system: UO-31 renal
HOP-62 NSCLC = system: HOP-62 NSCLC
RXF 393 renal = system: RXF 393 renal
NCI-H460 lung = system: NCI-H460 lung
SF-539 CNS = system: SF-539 CNS
U251 CNS = system: U251 CNS
SK-MEL-5 melanoma = system: SK-MEL-5 melanoma
MOLT-4 leukemia = system: MOLT-4 leukemia
SK-MEL-28 melanoma = system: SK-MEL-28 melanoma
OVCAR-5 ovarian = system: OVCAR-5 ovarian
SNB-19 CNS = system: SNB-19 CNS
SN12C renal = system: SN12C renal
CCRF-CEM leukemia = system: CCRF-CEM leukemia
SK-MEL-2 melanoma = system: SK-MEL-2 melanoma
OVCAR-4 ovarian = system: OVCAR-4 ovarian
OVCAR-8 ovarian = system: OVCAR-8 ovarian
HT29 colon = system: HT29 colon
HCT-116 colon = system: HCT-116 colon
HCC-2998 colon = system: HCC-2998 colon
IGROV1 ovarian = system: IGROV1 ovarian
UACC-62 melanoma = system: UACC-62 melanoma
SK-OV-3 ovarian = system: SK-OV-3 ovarian
SR leukemia = system: SR leukemia
SW-620 colon = system: SW-620 colon
ACHN renal = system: ACHN renal
LOX IMVI melanoma = system: LOX IMVI melanoma
MDA-MB-231 breast = system: MDA-MB-231 breast
786-0 renal = system: 786-0 renal
DU-145 prostate = system: DU-145 prostate
T-47D breast = system: T-47D breast
NCI-H522 lung = system: NCI-H522 lung
M14 melanoma = system: M14 melanoma
EKVX NSCLC = system: EKVX NSCLC
PC-3 prostate = system: PC-3 prostate
SF-268 CNS = system: SF-268 CNS
HL-60(TB) leukemia = system: HL-60(TB) leukemia
NCI/ADR-RES ovarian = system: NCI/ADR-RES ovarian

Nc1ccn(C2CSC(CO)O2)c(=O)n1 (stereo unspecified)
GI50 (NCI-H23 lung): > 1000 µM | TGI (NCI-H23 lung): > 1000 µM

CSCCCC(NC(=O)CNC(=O)C1CCCN1C(=O)C(Cc1ccc(O)cc1)NC(=O)C(Cc1ccccc1)NC(=O)C(CCCN=C(N)N)NC(=O)C(CC(=O)O)NC(=O)C1CCCN1C(=O)C(CC(=O)O)NC(=O)C1CCCN1C(=O)C1CCCN1C(=O)CN)C(N)=O (stereo unspecified) (H-GPPDPDRFYPG[X38]-NH2; configuration not given here)
TGI (NCI-H23 lung): > 50 µM | TGI (HOP-92 NSCLC): > 50 µM | TGI (NCI-H226 lung): > 50 µM | TGI (UACC-257 melanoma): > 50 µM | TGI (BT-549 breast): > 50 µM

C=C(CNCCc1ccc(O)cc1)[C@@H]1CC[C@]2(CO)CC[C@]3(C)[C@H](CC[C@@H]4[C@@]5(C)CCC(=O)C(C)(C)[C@@H]5CC[C@]43C)[C@@H]12
GI50 (A549 NSCLC): 1.63 µM | TGI (A549 NSCLC): 2.99 µM | GI50 (A498 renal): 1.38 µM | TGI (A498 renal): 2.77 µM | GI50 (K-562 leukemia): 1.86 µM | TGI (K-562 leukemia): 4.72 µM | GI50 (OVCAR-3 ovarian): 1.67 µM | TGI (OVCAR-3 ovarian): 3.08 µM | GI50 (MDA-MB-435): 1.74 µM | TGI (MDA-MB-435): 3.22 µM | GI50 (TK-10 renal): 1.73 µM | TGI (TK-10 renal): 3.19 µM | GI50 (SF-295 CNS): 1.74 µM | TGI (SF-295 CNS): 3.22 µM | GI50 (MCF7 breast): 1.87 µM | TGI (MCF7 breast): 3.84 µM | GI50 (KM12 colon): 1.82 µM | TGI (KM12 colon): 3.61 µM | GI50 (NCI-H23 lung): 1.69 µM | TGI (NCI-H23 lung): 3.26 µM | GI50 (COLO 205 colon): 1.73 µM | TGI (COLO 205 colon): 3.32 µM | GI50 (SNB-75 CNS): 1.37 µM | TGI (SNB-75 CNS): 2.74 µM | GI50 (MALME-3M melanoma): 1.65 µM | TGI (MALME-3M melanoma): 3.25 µM | GI50 (CAKI-1 renal): 1.57 µM | TGI (CAKI-1 renal): 2.96 µM | GI50 (HCT-15 colon): 1.47 µM | TGI (HCT-15 colon): 2.89 µM | GI50 (RPMI-8226 leukemia): 1.79 µM | TGI (RPMI-8226 leukemia): 4.45 µM | GI50 (UO-31 renal): 1.3 µM | TGI (UO-31 renal): 2.58 µM | GI50 (HOP-62 NSCLC): 1.58 µM | TGI (HOP-62 NSCLC): 3.11 µM | GI50 (RXF 393 renal): 1.28 µM | TGI (RXF 393 renal): 2.59 µM | GI50 (NCI-H460 lung): 1.66 µM | TGI (NCI-H460 lung): 3.28 µM | GI50 (SF-539 CNS): 1.75 µM | TGI (SF-539 CNS): 3.17 µM | GI50 (HOP-92 NSCLC): 1.01 µM | TGI (HOP-92 NSCLC): 2.26 µM | GI50 (U251 CNS): 1.56 µM | TGI (U251 CNS): 2.92 µM | GI50 (SK-MEL-5 melanoma): 1.63 µM | TGI (SK-MEL-5 melanoma): 2.99 µM | GI50 (NCI-H226 lung): 1.62 µM | TGI (NCI-H226 lung): 3.64 µM | GI50 (MOLT-4 leukemia): 1.96 µM | TGI (MOLT-4 leukemia): 4.47 µM | GI50 (SK-MEL-28 melanoma): 1.7 µM | TGI (SK-MEL-28 melanoma): 3.14 µM | GI50 (OVCAR-5 ovarian): 1.59 µM | TGI (OVCAR-5 ovarian): 3 µM | GI50 (SNB-19 CNS): 1.62 µM | TGI (SNB-19 CNS): 3.02 µM | GI50 (SN12C renal): 1.65 µM | TGI (SN12C renal): 3.12 µM | GI50 (CCRF-CEM leukemia): 1.92 µM | TGI (CCRF-CEM leukemia): 5.26 µM | GI50 (SK-MEL-2 melanoma): 1.75 µM | TGI (SK-MEL-2 melanoma): 3.27 µM | GI50 (OVCAR-4 ovarian): 1.65 µM | TGI (OVCAR-4 ovarian): 3.12 µM | GI50 (OVCAR-8 ovarian): 1.73 µM | TGI (OVCAR-8 ovarian): 3.16 µM | GI50 (HT29 colon): 1.62 µM | TGI (HT29 colon): 3.08 µM | GI50 (HCT-116 colon): 1.67 µM | TGI (HCT-116 colon): 3.03 µM | GI50 (HCC-2998 colon): 1.64 µM | TGI (HCC-2998 colon): 3.06 µM | GI50 (IGROV1 ovarian): 1.68 µM | TGI (IGROV1 ovarian): 3.3 µM | GI50 (UACC-257 melanoma): 1.78 µM | TGI (UACC-257 melanoma): 3.26 µM | GI50 (UACC-62 melanoma): 1.69 µM | TGI (UACC-62 melanoma): 3.09 µM | GI50 (SK-OV-3 ovarian): 1.79 µM | TGI (SK-OV-3 ovarian): 3.51 µM | GI50 (SR leukemia): 1.3 µM | TGI (SR leukemia): 4.17 µM | GI50 (BT-549 breast): 1.71 µM | TGI (BT-549 breast): 3.29 µM | GI50 (SW-620 colon): 1.77 µM | TGI (SW-620 colon): 3.76 µM | GI50 (ACHN renal): 1.61 µM | TGI (ACHN renal): 2.96 µM | GI50 (LOX IMVI melanoma): 1.6 µM | TGI (LOX IMVI melanoma): 2.97 µM | GI50 (MDA-MB-231 breast): 1.76 µM | TGI (MDA-MB-231 breast): 3.2 µM | GI50 (786-0 renal): 1.6 µM | TGI (786-0 renal): 2.95 µM | GI50 (DU-145 prostate): 1.77 µM | TGI (DU-145 prostate): 3.15 µM | GI50 (T-47D breast): 1.72 µM | TGI (T-47D breast): 4 µM | GI50 (NCI-H522 lung): 1.69 µM | TGI (NCI-H522 lung): 3.23 µM | GI50 (M14 melanoma): 1.72 µM | TGI (M14 melanoma): 3.24 µM | GI50 (EKVX NSCLC): 1.7 µM | TGI (EKVX NSCLC): 3.24 µM | GI50 (PC-3 prostate): 1.32 µM | TGI (PC-3 prostate): 2.69 µM

CC1=C(C(=O)OCCO[N+](=O)[O-])C(c2ccccc2C(F)(F)F)C(C(=O)OC(C)C)=C(C)N1 (stereo unspecified)
TGI (A549 NSCLC): > 100 µM | TGI (A498 renal): 60.6 µM | TGI (K-562 leukemia): > 100 µM | TGI (OVCAR-3 ovarian): 29.2 µM | TGI (MDA-MB-435): 53.5 µM | TGI (TK-10 renal): 77.4 µM | TGI (SF-268 CNS): 47.9 µM | TGI (SF-295 CNS): 26.9 µM | TGI (MCF7 breast): 75.1 µM | TGI (KM12 colon): 21.8 µM | TGI (NCI-H23 lung): 85.4 µM | TGI (COLO 205 colon): 28.4 µM | TGI (HL-60(TB) leukemia): > 100 µM | TGI (MALME-3M melanoma): 58.1 µM | TGI (CAKI-1 renal): 52.3 µM | TGI (HCT-15 colon): 60.6 µM | TGI (RPMI-8226 leukemia): > 100 µM | TGI (UO-31 renal): 33.6 µM | TGI (HOP-62 NSCLC): 45.8 µM | TGI (RXF 393 renal): 31.4 µM | TGI (NCI-H460 lung): 58.6 µM | TGI (SF-539 CNS): 31.6 µM | TGI (HOP-92 NSCLC): 26.8 µM | TGI (U251 CNS): 29.1 µM | TGI (SK-MEL-5 melanoma): 22.1 µM | TGI (NCI-H226 lung): 27.4 µM | TGI (MOLT-4 leukemia): > 100 µM | TGI (SK-MEL-28 melanoma): 33.5 µM | TGI (OVCAR-5 ovarian): 37.3 µM | TGI (SNB-19 CNS): 78.3 µM | TGI (SN12C renal): 36.8 µM | TGI (CCRF-CEM leukemia): > 100 µM | TGI (SK-MEL-2 melanoma): 29.7 µM | TGI (OVCAR-4 ovarian): 93.4 µM | TGI (OVCAR-8 ovarian): 64.7 µM | TGI (HT29 colon): 36.3 µM | TGI (HCT-116 colon): 29.1 µM | TGI (HCC-2998 colon): > 100 µM | TGI (IGROV1 ovarian): 42.8 µM | TGI (NCI/ADR-RES ovarian): 57.8 µM | TGI (UACC-257 melanoma): 25.4 µM | TGI (UACC-62 melanoma): 80.2 µM | TGI (SK-OV-3 ovarian): > 100 µM | TGI (SR leukemia): > 100 µM | TGI (BT-549 breast): 26.9 µM | TGI (SW-620 colon): > 100 µM | TGI (ACHN renal): > 100 µM | TGI (LOX IMVI melanoma): 27.3 µM | TGI (MDA-MB-231 breast): 23.5 µM | TGI (786-0 renal): 36.6 µM | TGI (DU-145 prostate): > 100 µM | TGI (T-47D breast): > 100 µM | TGI (NCI-H522 lung): 44.4 µM | TGI (M14 melanoma): 31.4 µM | TGI (EKVX NSCLC): 97.9 µM | TGI (PC-3 prostate): 34.5 µM
